In one series the test system is SOD. In words: Superoxide dismutase (SOD) activity test in serum. The format is in vivo, C57BL/6 mice. Set-up: unit not given here. Here is the method:
Specifically, the blood was reacted in an anticoagulant tube at 25° C. (room temperature) for 30 minutes, and then centrifuged at 2,000 × g for 15 minutes at 4° C. to prepare purified serum. The purified serum was stored at -80° C. for one month and diluted 1:5 with sample buffer before analysis, and then the amount of SOD in the body was measured using an SOD assay kit (No. 706002, Cayman Che., MI, USA). The SOD assay kit is a kit that uses tetrazolium salt to detect superoxide radicals generated by xanthine oxidase and hypoxanthine. […] The amount of oxidative stress in serum was analyzed by analyzing the SOD activity test result in Experimental Example <1-5>.

In another series the test system is auditory hair cells. In words: Hair cell survival and damage by Myo7a immunostaining of cochlear slices. To be noted: normoxia; single condition. Type of series: in vivo, C57BL/6 mice.
The conditions of series [1]: mouse.
The nature of series [2]: Auditory brainstem response test (ABR-TEST), hearing threshold. Type of series: in vivo, C57BL/6 mice. To be noted: for hearing threshold: hypoxia.
Procedure: The wave V reference value of ABR was determined by gradually attenuating the sound intensity in 5 dB steps from 80 dB SPL until the wave V and the noise floor were indistinguishable from the recorded traces. Data management and auditory brainstem response test were conducted using the TDT RZ6/BioSigRZ system (Tucker Davis Technologies, Alachua, FL, USA) in a noise attenuation chamber with a built-in Faraday box.
Electrodes were disposed on the subcutaneous tissue of each mouse to collect data. […] An isothermal pad was used to maintain the body temperature of the mouse, and the ABR test was conducted every two weeks for stability of the experimental groups.

This is an account of results in patent US20230309520A1, “AGE-RELATED HEARING LOSS ANIMAL MODEL AND CONSTRUCTION METHOD THEREFOR” (UNIVERSITY INDUSTRY FOUNDATION, YONSEI UNIVERSITY WONJU …, priority 2020, published 2023).

The structures appear in SMILES notation.

Procedure for auditory hair cells: Specifically, an opening was made at the apex of the cochlear bone of the sacrificed mouse, and phosphate buffered saline at pH 7.4 containing 4% paraformaldehyde as a fixative was perfused at room temperature. The cochlea perfused with a fixative was immersed in Calci-Clear Rapid for 24 hours to demineralize, an OCT (Optimal Cutting Temperature) compound was inserted, and then the cochlea was cut into slices with a thickness of 2 to 5 µm using LEICA RM2145 (Leica Biosystems, Wetzlar, German). The cut cochlea was incubated in standard hematoxylin for 3 minutes and stained with eosin (H&E) for 60 seconds.
Specifically, the cochlear slice was fixed on a gelatin-coated slide having a thickness of 5 µm with 4% paraformaldehyde for 15 minutes and then dried at room temperature. The slice was incubated with 5% normal goat serum at room temperature for 1 hour to prevent nonspecific labeling, and incubated with primary antibody MY07A (1:200, ab3481, Abeam, UK) at 4° C. for 1 hour. […]
The images of auditory hair cells of all the cochlear slices were analyzed using a confocal microscope (Carl Zeiss Microscopy GmbH, Jena, Germany) and ZEN lite ver.2.3 (ZEN lite, Jena, Germany) software.
The survival rate was evaluated by analyzing Myo7a, a major protein present in auditory hair cells.

With `O=C[C@H](O)[C@@H](O)[C@@H](O)[C@H](O)CO` [GI, D-galactose], the “amount of SOD in serum” value was found to be 0.5914 ±0.000 in the series on SOD (hypoxia, 0 M); 0.5627 ± 0.005 with SOD (hypoxia, 1 M); 0.5463 ± 0.005 in the series on SOD (hypoxia, 2 M); 0.5695 ± 0.059 in the series on SOD (hypoxia, 3 M); 0.5955 ± 0.017 with SOD (normoxia, 0 M); 0.5463 ± 0.005 in the series with SOD (normoxia, 1 M). Also, the “amount of SOD in serum” value is reported as 0.5216 ± 0.005 with SOD (normoxia, 2 M) and 0.5148 ± 0.028 in the series with SOD (normoxia, 3 M). For the same compound, the “damage to hair cells” value with auditory hair cells is given as “almost no damage to cells”. Also, in series [1], the “Dermis Thickness” value is 348.5 ±85.9. The hearing threshold in series [2] (8, 16, 24 kHz analysis, initial value (increased from)) is 30 dB; in series [2] (8, 16, 24 kHz analysis, value after 1 month (increased to)), 60 dB; in series [2] (8 kHz, final value (increased to), 3 months), 67 + 10.13 dB; in series [2] (8 kHz, initial value (increased from)), 34 + 3.76 dB; in series [2] (16 kHz, final value (increased to), 3 months), 60 + 7.33 dB; in series [2] (16 kHz, initial value (increased from)) it was 38 + 4.08 dB. Moreover, in series [2] (normoxia, 8, 16, and 24 kHz), the “change in hearing threshold compared to control group” value was “do not change significantly”. The “change in the hearing threshold” value in series [2] (normoxia, 8 kHz) is “no significant change”. In addition, the “changes in the hearing thresholds” value in series [2] (normoxia, frequencies of 4 to 32 kHz, 3 months) is recorded as “no significant changes”.
